Calls of active or inactive are those of the source. The rule behind the calls is not given here. Where only a bound is given, the exact number is not on record here.

This assay deals with Jurkat cell viability, ATP luminescence. The assay is described as follows: Jurkat T cell cytotoxicity, late-stage follow-up, cytotoxicity control for T. brucei MetRS inhibitor project, luminescence, round 3 (AID 1053130).
With `O=C(Cn1cc(C(=O)C(=O)NCc2ccccc2)c2ccccc21)Nc1cc(Oc2ccccc2)cc(C(F)(F)F)c1`, the IC50 (in general, the concentration needed to halve the response being measured) was 63.9 µM (inactive).
Regarding `CCN(CC)C(=O)C(=O)c1cn(CCNc2cccc(C(F)(F)F)c2)c2ccccc12`, the IC50 is 41.1 µM (inactive).
Regarding `CCN(CC)C(=O)C(=O)c1cn(CC(=O)Nc2cc(Oc3ccc(F)cc3)cc(C(F)(F)F)c2)c2ccccc12`, the IC50 is 50.1 µM (inactive).
`CCN(CC)C(=O)C(=O)c1cn(CCNc2cc(Oc3ccccc3)cc(C(F)(F)F)c2)c2ccccc12`: the IC50 was 34.8 µM (inactive).
For the compound `Nc1c(Cl)ncnc1Nc1ccc(C(=O)O)cc1`, the IC50 is > 83.3 µM (inactive).
Consider `CCN(CC)C(=O)C(=O)c1cn(CC(=O)Nc2cc(Oc3ccccc3OC)cc(C(F)(F)F)c2)c2ccccc12`, for which the IC50 is > 83.3 µM (inactive).
Take `O=C(Cc1ccc(Nc2nc3ccc(Br)cc3[nH]2)cc1)NCCc1cccs1`: the IC50 was > 27.8 µM (inactive).
`CCN(CC)C(=O)C(=O)c1cn(CC(=O)Nc2cc(Oc3ccccc3F)cc(C(F)(F)F)c2)c2ccccc12`: the IC50 was > 83.3 µM (inactive).
The value for `CCN(CC)C(=O)C(=O)c1cn(CC(=O)Nc2cccc(C(F)(F)F)c2)c2ccccc12` was 57.2 µM (inactive); that for `CCN(CC)C(=O)C(=O)c1cn(CC(=O)Nc2cc(Oc3ccc(OC)cc3)cc(C(F)(F)F)c2)c2ccccc12` was 11.3 µM (inactive).
Turning to `CCN(CC)C(=O)Cc1cn(CC(=O)Nc2cccc(C(F)(F)F)c2)c2ccccc12`, the IC50 was > 83.3 µM (inactive).
For `CCN(CC)C(=O)C(=O)c1cn(CC(=O)Nc2cc(Oc3ccccc3)cc(C(F)(F)F)c2)c2ccccc12`, the IC50 was 21 µM (inactive).

The values are drawn from PubChem BioAssay AID1053130 (The Scripps Research Institute Molecular Screening Center, 2014).
